Read-outs that look alike come from different tables or passages of the source.
How the values were obtained:
Format in all cases: cell-based
Botrytis cinerea = assay: Microtest: activity against the grey mold pathogen Botrytis cinerea; conditions: single compound, 7 days; for inhibition of growth at 0.25 ppm / inhibition of growth at 1 ppm / inhibition of growth at 4 ppm: Botrytis cinerea, 168 h, read-out: Observed efficacy
Phytophthora infestans = conditions: single compound, 7 days
Septoria tritici = assay: Microtest: activity against the wheat leaf blotch pathogen Septoria tritici; conditions: single compound, 7 days
Alternaria solani = assay: Microtest: activity against the early blight pathogen Alternaria solani; conditions: single compound, 7 days
Pyricularia oryzae = assay: microbe, parasite or virus in culture
[1] = Zymoseptoria tritici, 168 h, 0.063 ppm, read-out: Observed efficacy
[2] = Zymoseptoria tritici, 168 h, 0.25 ppm, read-out: Observed efficacy
[3] = Pyricularia oryzae, 168 h, read-out: Observed efficacy
[4] = Zymoseptoria tritici, 168 h, read-out: Observed efficacy

Fc1ccc([C@]2(Cn3cncn3)O[C@H]2c2ccccc2Cl)cc1 (racemic) [II-4, Epoxiconazole, reference compound]
inhibition of growth at 0.25 ppm (Botrytis cinerea; 0.25 ppm): 40%

Fc1ccc(F)c2c(NCCc3ccc(Oc4cc(C(F)(F)F)ncn4)cc3)ncnc12 [Compound I-3, (5,8-Difluoro-quinazolin-4-yl)-{2-[4-(6-trifluoromethyl-pyrimidin-4-yloxy)-phenyl]-ethyl}-amine]
inhibition of growth at 1 ppm (Botrytis cinerea): 22% | inhibition of growth at 4 ppm (Botrytis cinerea): 35% | Observed efficacy (Phytophthora infestans; 1 ppm): 47% | inhibition of growth at 0.063 ppm (Septoria tritici; [1]): 30% | inhibition of growth at 0.25 ppm (Septoria tritici; [2]): 33% | Observed efficacy (Alternaria solani; 0.25 ppm): 38% | Observed efficacy (Alternaria solani; 1 ppm): 35% | inhibition of growth at 0.016 ppm (Pyricularia oryzae; [3]): 34% | inhibition of growth at 0.063 ppm (Pyricularia oryzae; [3]): 45% | inhibition of growth at 0.25 ppm (Pyricularia oryzae; [3]): 43% | inhibition of growth at 4 ppm (Pyricularia oryzae; [3]): 72%

Fc1ccc(F)c2c(NCCc3ccc(Oc4cc(C(F)(F)F)ccn4)cc3)ncnc12 [Compound I-5, (5,8-Difluoro-quinazolin-4-yl)-{2-[4-(4-trifluoromethyl-pyridin-2-yloxy)-phenyl]-ethyl}-amine]
inhibition of growth at 1 ppm (Botrytis cinerea): 14% | inhibition of growth at 4 ppm (Botrytis cinerea): 22% | Observed efficacy (Phytophthora infestans; 1 ppm): 49% | inhibition of growth at 0.063 ppm (Septoria tritici; [1]): 37% | inhibition of growth at 0.25 ppm (Septoria tritici; [2]): 40% | Observed efficacy (Alternaria solani; 0.25 ppm): 37% | Observed efficacy (Alternaria solani; 1 ppm): 38% | inhibition of growth at 0.016 ppm (Pyricularia oryzae; [3]): 36% | inhibition of growth at 0.063 ppm (Pyricularia oryzae; [3]): 54% | inhibition of growth at 0.25 ppm (Pyricularia oryzae; [3]): 59%

COc1cc(CCNc2ncnc3c(F)ccc(F)c23)ccc1Oc1ncc(C(F)(F)F)cc1Cl [Compound I-17, (5,8-Difluoro-quinazolin-4-yl)-{2-[4-(3-chloro-5-trifluoromethyl-pyridin-2-yloxy)-3-methoxy-phenyl]-ethyl}-amine]
inhibition of growth at 1 ppm (Botrytis cinerea): 4% | inhibition of growth at 4 ppm (Botrytis cinerea): 11% | Observed efficacy (Phytophthora infestans; 1 ppm): 42% | inhibition of growth at 0.25 ppm (Septoria tritici; [2]): 30% | inhibition of growth at 1 ppm (Septoria tritici; [4]): 33% | Observed efficacy (Alternaria solani; 1 ppm): 26% | inhibition of growth at 0.063 ppm (Pyricularia oryzae; [3]): 14% | inhibition of growth at 0.25 ppm (Pyricularia oryzae; [3]): 36% | inhibition of growth at 4 ppm (Pyricularia oryzae; [3]): 69%

COc1cc(CCNc2ncnc3c(F)ccc(F)c23)ccc1Oc1cc(C(F)(F)F)ccn1 [Compound I-18, (5,8-Difluoro-quinazolin-4-yl)-{2-[4-(4-trifluoromethyl-pyridin-2-yloxy)-3-methoxy-phenyl]-ethyl}-amine]
inhibition of growth at 1 ppm (Botrytis cinerea): 11% | inhibition of growth at 4 ppm (Botrytis cinerea): 24% | Observed efficacy (Phytophthora infestans; 1 ppm): 50% | inhibition of growth at 0.063 ppm (Septoria tritici; [1]): 41% | inhibition of growth at 0.25 ppm (Septoria tritici; [2]): 44% | inhibition of growth at 1 ppm (Septoria tritici; [4]): 44% | Observed efficacy (Alternaria solani; 0.25 ppm): 43% | Observed efficacy (Alternaria solani; 1 ppm): 44% | inhibition of growth at 0.016 ppm (Pyricularia oryzae; [3]): 41% | inhibition of growth at 0.063 ppm (Pyricularia oryzae; [3]): 49% | inhibition of growth at 0.25 ppm (Pyricularia oryzae; [3]): 54%

COc1cc(CCNc2ncnc3c(F)cc(F)c(F)c23)ccc1Oc1cc(C(F)(F)F)ccn1 [Compound I-19, (5,6,8-Trifluoro-quinazolin-4-yl)-{2-[4-(4-trifluoromethyl-pyridin-2-yloxy)-3-methoxy-phenyl]-ethyl}-amine]
inhibition of growth at 1 ppm (Botrytis cinerea): 12% | inhibition of growth at 4 ppm (Botrytis cinerea): 15% | Observed efficacy (Phytophthora infestans; 1 ppm): 47% | inhibition of growth at 0.063 ppm (Septoria tritici; [1]): 40% | inhibition of growth at 1 ppm (Septoria tritici; [4]): 41% | Observed efficacy (Alternaria solani; 1 ppm): 40% | inhibition of growth at 0.016 ppm (Pyricularia oryzae; [3]): 29% | inhibition of growth at 0.063 ppm (Pyricularia oryzae; [3]): 51% | inhibition of growth at 0.25 ppm (Pyricularia oryzae; [3]): 53% | inhibition of growth at 4 ppm (Pyricularia oryzae; [3]): 71%

CO/C=C(/C(=O)OC)c1ccccc1Oc1cc(Oc2ccccc2C#N)ncn1 [II-1, Azoxystrobin, reference compound]
Observed efficacy (Botrytis cinerea; 0.25 ppm): 12% | Observed efficacy (Septoria tritici; 0.063 ppm): 54% | Observed efficacy (Septoria tritici; 0.25 ppm): 73% | Observed efficacy (Pyricularia oryzae; 0.004 ppm, single compound, 7 days): 12%

Cn1cc(C(=O)Nc2ccc(F)cc2-c2ccc(Cl)c(Cl)c2)c(C(F)F)n1 [II-2, Bixafen, reference compound]
Observed efficacy (Septoria tritici; 0.063 ppm): 40%

N#Cc1c(Cl)c(Cl)c(Cl)c(C#N)c1Cl [II-3, Chlorothalonil, reference compound]
inhibition of growth at 1 ppm (Botrytis cinerea): 66%

CC(C)CC(C)c1sccc1NC(=O)c1cn(C)nc1C(F)(F)F (stereo not shown) [II-10, Penthiopyrad, reference compound]
inhibition of growth at 0.016 ppm (Septoria tritici; Zymoseptoria tritici, 168 h, 0.016 ppm, read-out: Observed efficacy): 30%

COC(=O)N(OC)c1ccccc1COc1ccn(-c2ccc(Cl)cc2)n1 [II-14, Pyraclostrobin, reference compound]
inhibition of growth at 0.25 ppm (Botrytis cinerea; 0.25 ppm): 20% | Observed efficacy (Phytophthora infestans; 0.063 ppm): 25% | inhibition of growth at 0.004 ppm (Septoria tritici; [4]): 50% | Observed efficacy (Alternaria solani; 0.016 ppm): 34% | inhibition of growth at 0.004 ppm (Pyricularia oryzae; [3]): 39%

Fc1ccc(Oc2ccnc3cc(Cl)cc(Cl)c23)cc1 [II-15, Quinoxyfen, reference compound]
inhibition of growth at 1 ppm (Septoria tritici; [4]): 10% | inhibition of growth at 16 ppm (Pyricularia oryzae; [3]): 9%

CON=C(C(=O)OC)c1ccccc1CON=C(C)c1cccc(C(F)(F)F)c1 [II-17, Trifloxystrobin, reference compound]
inhibition of growth at 0.25 ppm (Botrytis cinerea; 0.25 ppm): 19% | inhibition of growth at 0.004 ppm (Septoria tritici; [4]): 40% | Observed efficacy (Alternaria solani; 0.063 ppm): 48% | inhibition of growth at 0.016 ppm (Pyricularia oryzae; [3]): 24%

From US20130040813A1 (priority 2010, published 2013)
